Test results from ChEMBL document CHEMBL1641528, “Reverse type I inhibitor of Mycobacterium tuberculosis CYP125A1” (Bioorg Med Chem Lett, 2011).

Target: T1, Steroid C26-monooxygenase (Mycobacterium tuberculosis, UniProt P9WPP1)
T1 sequence (P9WPP1 whole entry): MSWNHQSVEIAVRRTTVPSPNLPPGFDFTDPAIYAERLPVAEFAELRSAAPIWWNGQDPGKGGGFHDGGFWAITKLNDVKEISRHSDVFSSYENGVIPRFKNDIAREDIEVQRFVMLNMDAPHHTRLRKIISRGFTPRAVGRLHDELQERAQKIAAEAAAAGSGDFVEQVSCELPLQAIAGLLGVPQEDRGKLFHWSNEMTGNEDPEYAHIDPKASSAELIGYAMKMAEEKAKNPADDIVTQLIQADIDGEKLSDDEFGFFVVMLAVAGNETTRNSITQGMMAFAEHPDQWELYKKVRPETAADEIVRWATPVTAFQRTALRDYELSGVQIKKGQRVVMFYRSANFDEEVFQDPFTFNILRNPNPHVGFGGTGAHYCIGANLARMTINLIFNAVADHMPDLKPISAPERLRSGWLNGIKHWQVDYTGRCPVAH
Assay: Inhibition of Mycobacterium tuberculosis H37Rv CYP125A1 expressed in Escherichia coli at 200 uM

Q: With CC1CCC(C(=O)NC(Cc2c[nH]c3ccccc23)C(=O)Nc2ccncc2)CC1 (stereo unspecified) as the compound, how does the inhibition at 200 µM read?
A: 30%
